Data published in article PMC9382805, “Design, synthesis, anticancer evaluation and docking studies of novel 2-(1-isonicotinoyl-3-phenyl-1H-pyrazol-4-yl)-3-phenylthiazolidin-4-one derivatives as Aurora-A kinase inhibitors” (BMC Chemistry, 2022).
Like-named read-outs stand apart in the source and are kept apart here.

Columns and labels:
[1] = target: recombinant human Aurora-A (Homo sapiens, UniProt O14965); experiment: biochemical; details: NADH consumption at 340 nm, 30 °C; read-out: IC50 ± SD, inhibition of Aurora-A kinase
recombinant human Aurora-A, sequence (O14965 whole entry): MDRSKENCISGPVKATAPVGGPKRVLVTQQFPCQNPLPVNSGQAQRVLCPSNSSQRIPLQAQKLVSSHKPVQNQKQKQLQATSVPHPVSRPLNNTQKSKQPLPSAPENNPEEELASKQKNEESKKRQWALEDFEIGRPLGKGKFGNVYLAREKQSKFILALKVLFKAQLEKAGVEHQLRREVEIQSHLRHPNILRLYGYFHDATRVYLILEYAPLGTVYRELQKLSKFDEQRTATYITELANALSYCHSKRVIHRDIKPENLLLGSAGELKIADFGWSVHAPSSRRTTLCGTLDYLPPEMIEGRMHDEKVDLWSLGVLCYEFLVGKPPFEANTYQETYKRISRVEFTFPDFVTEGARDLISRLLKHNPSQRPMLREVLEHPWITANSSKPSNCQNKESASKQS
Description: At 30 °C, dilute enzyme (aurora A), substrates (NADH, NaCl, MgCl2, PEP, LDH, PK, and histones H3), ATP, and inhibitors (selected compounds as per in silico studies) in kinase buffer (HEPES) and this to 96 well plates and incubate for 60 min. Once the ATP substrate was added, the reaction began. With the reaction, NADH was continuously transformed into NAD^+ The activity of Aurora-A can be assayed by measuring the consumption of nicotinamide adenine dinucleotide plus hydrogen (NADH) at 340 nm. Absorbance at 340 nm was continuously recorded for 10 min. Inhibition of recombinant human Aurora-A by inhibitors was initially screened via an enzyme-coupled continuous spectrophotometric assay (Kishore et al., 2008; Aixia et al., 2011; Fancelli D et al., 2006).

[2] = tested on: MCF-7 cell line (breast cancer); experiment: MTT cytotoxicity assay, MCF-7; assay type: cell-based, human
Description: (§1) MTT assay was engaged to evaluate the anticancer activity of synthesized compounds P(1–21) against various human cancer cell lines (breast cancer- MCF-7 and colorectal carcinoma- HCT116) [31–34].
(§2) The MTT test was carried out using the 3-(4,5-dimethyl-2-thiazolyl)-2,5-diphenyl-2H-tetrazolium (MTT) colorimetric test [33, 34]. […] The MTT test based on the reduction of MTT (yellow color) depends on cellular metabolic activities due to H-dependent cellular NAD (P) oxidoreductase enzymes [33]. […] The final product of MTT reduction is a purple formazan that can be easily dissolved in DMSO.
(§3) To test the anticancer activities of the synthesized compounds (selected based on docking studies), we evaluated the antiproliferative activity of compounds P (1–21) against HCT116 and MCF-7 cell lines. All the experiments were repeated at least thrice independently, the 50% inhibitory concentration (IC50) of new hybrids was determined (as the anticancer drug concentration causing a 50% reduction in cell viability) and calculated using a trendline equation.

[3] = tested on: HCT116 cell line (colorectal carcinoma); experiment: MTT cytotoxicity assay, HCT116; assay type: cell-based, human
Description: as §1, §2, §3

[4] = tested on: HCT 116 and MCF-7 cell lines; experiment: cells; details: Homo sapiens, read-out: IC50, cytotoxicity, range over two cancer cell lines
Description: as §1, §2, §3

[5] = Homo sapiens, MCF7, read-out: IC50 ± SD, MCF-7, inhibition of growth of tumor cell lines
[6] = Homo sapiens, HCT-116, read-out: IC50 ± SD, HCT-116, inhibition of growth of tumor cell lines

SMILES | IC50 [1] | melting point | IC50 [2, 5] | IC50 [3, 6] | IC50 [4] | IC50 ([2]; Homo sapiens, MCF7, MTT assay, MCF-7, read-out: IC50 ± SD, MCF-7, inhibition of growth of tumor cell lines) | IC50 ([2]; MTT assay, MCF-7, listed as VX-680 (Tozasertib), read-out: IC50 ± SD, MCF-7, inhibition of growth of tumor cell lines) | IC50 ([3]; Homo sapiens, HCT-116, MTT assay, HCT116, read-out: IC50 ± SD, HCT-116, inhibition of growth of tumor cell lines) | IC50 ([3]; MTT assay, HCT116, listed as VX-680 (Tozasertib), read-out: IC50 ± SD, HCT-116, inhibition of growth of tumor cell lines)
COc1ccc(-c2nn(C(=O)c3ccncc3)cc2C2SCC(=O)N2c2cccc(Cl)c2)cc1 (stereo not drawn) [Compound P-12, 3-(3-chlorophenyl)-2-(1-isonicotinoyl-3-(4-methoxyphenyl)-1H-pyrazol-4-yl)thiazolidin-4-one] | 5590 ± 370 nM | 338 to 340 °C | 4350 ± 470 nM | 4060 ± 380 nM |  |  |  |  | 
COc1ccc(N2C(=O)CSC2c2cn(C(=O)c3ccncc3)nc2-c2ccc(Br)cc2)cc1 (stereo not drawn) [Compound P-20, 2-(3-(4-bromophenyl)-1-isonicotinoyl-1H-pyrazol-4-yl)-3-(4-methoxyphenyl) thiazolidin-4-one] | 220 ± 80 nM |  | 560 ± 60 nM | 420 ± 80 nM | 390 to 560 nM |  |  |  | 
COc1ccc(-c2nn(C(=O)c3ccncc3)cc2C2SCC(=O)N2c2ccccc2[N+](=O)[O-])cc1 (stereo not drawn) [Compound P-10, 2-(1-isonicotinoyl-3-(4-methoxyphenyl)-1H-pyrazol-4-yl)-3-(2-nitrophenyl)thiazolidin-4-one] | 650 ± 90 nM | 322 to 324 °C | 1030 ± 110 nM | 780 ± 40 nM |  |  |  |  | 
O=C1CSC(c2cn(C(=O)c3ccncc3)nc2-c2ccc([N+](=O)[O-])cc2)N1c1ccccc1 (stereo not drawn) [Compound P-1, 2-(1-isonicotinoyl-3-(4-nitrophenyl)-1H-pyrazol-4-yl)-3-phenylthiazolidin-4-one] | 2340 ± 360 nM |  | 4400 ± 180 nM | 2300 ± 140 nM |  |  |  |  | 
COc1ccc(N2C(=O)CSC2c2cn(C(=O)c3ccncc3)nc2-c2ccc([N+](=O)[O-])cc2)cc1 (stereo not drawn) [Compound P-6, 2-(1-isonicotinoyl-3-(4-nitrophenyl)-1H-pyrazol-4-yl)-3-(4-methoxyphenyl)thiazolidin-4-one] | 180 ± 50 nM |  | 440 ± 60 nM | 370 ± 150 nM | 370 to 440 nM |  |  |  | 
O=C1CSC(c2cn(C(=O)c3ccncc3)nc2-c2ccc([N+](=O)[O-])cc2)N1c1ccccc1[N+](=O)[O-] (stereo not drawn) [Compound P-3, 2-(1-isonicotinoyl-3-(4-nitrophenyl)-1H-pyrazol-4-yl)-3-(2-nitrophenyl)thiazolidin-4-one] | 7250 ± 800 nM | 282 to 284 °C | 4490 ± 420 nM | 4470 ± 450 nM |  |  |  |  | 
COc1ccc(-c2nn(C(=O)c3ccncc3)cc2C2SCC(=O)N2c2ccc(Cl)cc2)cc1 (stereo not drawn) [Compound P-11, 3-(4-chlorophenyl)-2-(1-isonicotinoyl-3-(4-methoxyphenyl)-1H-pyrazol-4-yl)thiazolidin-4-one] | 2780 ± 140 nM | 318 to 320 °C | 2530 ± 190 nM | 2540 ± 200 nM |  |  |  |  | 
O=C1CSC(c2cn(C(=O)c3ccncc3)nc2-c2ccc(Br)cc2)N1c1ccc(Cl)cc1 (stereo not drawn) [Compound P-18, 2-(3-(4-bromophenyl)-1-isonicotinoyl-1H-pyrazol-4-yl)-3-(4-chlorophenyl)thiazolidin-4-one] | 1620 ± 110 nM | 244 to 246 °C | 1770 ± 150 nM | 1520 ± 90 nM |  |  |  |  | 
O=C1CSC(c2cn(C(=O)c3ccncc3)nc2-c2ccc(Br)cc2)N1c1ccc([N+](=O)[O-])cc1 (stereo not drawn) [Compound P-16, 2-(3-(4-bromophenyl)-1-isonicotinoyl-1H-pyrazol-4-yl)-3-(4-nitrophenyl)thiazolidin-4-one] | 2100 ± 150 nM | 268 to 270 °C | 2250 ± 250 nM | 2010 ± 110 nM |  |  |  |  | 
COc1ccc(-c2nn(C(=O)c3ccncc3)cc2C2SCC(=O)N2c2ccc([N+](=O)[O-])cc2)cc1 (stereo not drawn) [Compound P-9, 2-(1-isonicotinoyl-3-(4-methoxyphenyl)-1H-pyrazol-4-yl)-3-(4-nitrophenyl)thiazolidin-4-one] | 1450 ± 50 nM | 308 to 310 °C | 1620 ± 50 nM | 1450 ± 180 nM |  |  |  |  | 
O=C1CSC(c2cn(C(=O)c3ccncc3)nc2-c2ccc([N+](=O)[O-])cc2)N1c1ccc(Cl)cc1 (stereo not drawn) [Compound P-4, 3-(4-chlorophenyl)-2-(1-isonicotinoyl-3-(4-nitrophenyl)-1H-pyrazol-4-yl)thiazolidin-4-one] | 1330 ± 150 nM | 286 to 288 °C | 2550 ± 70 nM | 1350 ± 70 nM |  |  |  |  | 
COc1ccc(-c2nn(C(=O)c3ccncc3)cc2C2SCC(=O)N2c2ccc(OC)cc2)cc1 (stereo not drawn) [Compound P-13, 2-(1-isonicotinoyl-3-(4-methoxyphenyl)-1H-pyrazol-4-yl)-3-(4-methoxyphenyl) thiazolidin-4-one] | 12400 ± 850 nM |  | 8210 ± 350 nM | 5870 ± 420 nM |  |  |  |  | 
O=C1CSC(c2cn(C(=O)c3ccncc3)nc2-c2ccc([N+](=O)[O-])cc2)N1c1cccc(Cl)c1 (stereo not drawn) [Compound P-5, 3-(3-chlorophenyl)-2-(1-isonicotinoyl-3-(4-nitrophenyl)-1H-pyrazol-4-yl)thiazolidin-4-one] | 4790 ± 830 nM | 274 to 276 °C | 4010 ± 100 nM | 3880 ± 160 nM |  |  |  |  | 
Cc1cc(Nc2cc(N3CCN(C)CC3)nc(Sc3ccc(NC(=O)C4CC4)cc3)n2)[nH]n1 [VX-680, Tozasertib, reference compound] |  |  |  |  |  | 400 ± 30 nM | 380 ± 20 nM | 320 ± 50 nM | 300 ± 30 nM
O=C1CSC(c2cn(C(=O)c3ccncc3)nc2-c2ccc([N+](=O)[O-])cc2)N1c1ccc([N+](=O)[O-])cc1 (stereo not drawn) [Compound P-2, 2-(1-isonicotinoyl-3-(4-nitrophenyl)-1H-pyrazol-4-yl)-3-(4-nitrophenyl)thiazolidin-4-one] | 3570 ± 350 nM |  | 3260 ± 310 nM | 3520 ± 330 nM |  |  |  |  | 
COc1ccc(-c2nn(C(=O)c3ccncc3)cc2C2SCC(=O)N2c2ccccc2)cc1 (stereo not drawn) [Compound P-8, 2-(1-isonicotinoyl-3-(4-methoxyphenyl)-1H-pyrazol-4-yl)-3-phenylthiazolidin-4-one] | 7320 ± 690 nM | 300 to 302 °C | 6080 ± 240 nM | 5350 ± 270 nM |  |  |  |  | 
COc1ccccc1N1C(=O)CSC1c1cn(C(=O)c2ccncc2)nc1-c1ccc(Br)cc1 (stereo not drawn) [Compound P-21] |  | 260 to 262 °C |  |  |  |  |  |  | 
COc1ccccc1N1C(=O)CSC1c1cn(C(=O)c2ccncc2)nc1-c1ccc([N+](=O)[O-])cc1 (stereo not drawn) [Compound P-7, 2-(1-isonicotinoyl-3-(4-nitrophenyl)-1H-pyrazol-4-yl)-3-(2-methoxyphenyl)thiazolidin-4-one] | 420 ± 120 nM | 250 to 252 °C | 880 ± 30 nM | 620 ± 30 nM |  |  |  |  | 
COc1ccc(-c2nn(C(=O)c3ccncc3)cc2C2SCC(=O)N2c2ccccc2OC)cc1 (stereo not drawn) [Compound P-14] |  | 336 to 338 °C |  |  |  |  |  |  | 
O=C1CSC(c2cn(C(=O)c3ccncc3)nc2-c2ccc(Br)cc2)N1c1ccccc1 (stereo not drawn) [Compound P-15, 2-(3-(4-bromophenyl)-1-isonicotinoyl-1H-pyrazol-4-yl)-3-phenylthiazolidin-4-one] | 2100 ± 130 nM | 256 to 258 °C | 2340 ± 270 nM | 2180 ± 150 nM |  |  |  |  | 
O=C1CSC(c2cn(C(=O)c3ccncc3)nc2-c2ccc(Br)cc2)N1c1cccc(Cl)c1 (stereo not drawn) [Compound P-19] | 790 ± 70 nM | 248 to 250 °C | 1210 ± 50 nM | 1020 ± 120 nM |  |  |  |  | 
